According to patent US12304890B2, “R-type pyridyloxycarboxylic acid, salt and ester derivative thereof, and preparation method therefor, and herbicidal composition and application thereof” (Qingdao Kingagroot Chemical Compound Co., Ltd., priority 2018, dated 2025):

Experiments:
Assay type in all cases: in vivo
Monochoria vaginalis = assay: Weed control effect evaluation in rice field; settings: paddy pot, 0.5 leaf stage, 14 days, weed resistant to pyrazosulfuron-ethyl and penoxsulam
Description: Rice field soil was loaded into a 1/1,000,000 ha pot. The seeds of Monochoria vaginalis were sowed and gently covered with soil, then left to stand still in greenhouse in the state of 0.5-1 cm of water storage. It was kept at 3-4 cm of water storage thereafter. The weeds were treated by dripping the WP or SC water diluents prepared according to the common preparation method of the compounds of the present invention with pipette homogeneously to achieve specified effective amount when Monochoria vaginalis reached 0.5 leaf stage.
(§1) The fertility condition of Monochoria vaginalis 14 days and rice 21 days after the treatment of the compound of the invention with the naked eye.

Digitaria sanguinalis = assay: Post-emergence test experiment, Digitaria sanguinalis; settings: for Activity level (growth inhibition rate), Digitaria sanguinalis: 1000 g a.i./ha, 3 weeks in greenhouse, fresh weight inhibition
How it was run: (§2)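 Greenhouse post-emergence spray at 2-3 leaf stage (2 wk after sowing); acetone/tween-80 formulation, methyl oleate EC synergist 1.5 L/ha, water-diluted. Plants held 3 wk, then fresh weight inhibition rate read.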

[1] = tested on: Semen Euphorbiae Lathyridis; assay: Post-emergence test experiment, Semen Euphorbiae Lathyridis; settings: 200 g a.i./ha, 3 weeks, weed resistant to cyhalofop-butyl
How it was run: as §2

rice = assay: Post-emergence test experiment, rice (crop selectivity); settings: 200 g a.i./ha, 3 weeks
How it was run: as §2

Echinochloa crusgalli = assay: Post-emergence test experiment, Echinochloa crusgalli; settings: for Activity level (growth inhibition rate), Echinochloa crusgalli: 1000 g a.i./ha, 3 weeks in greenhouse, fresh weight inhibition
How it was run: as §2

[2] = tested on: Monocotyledonous and dicotyledonous weed seeds and main crop seeds; assay: Post-emergence test experiment, other weeds and crops (Table 4, 1000 g a.i./ha); settings: 3 weeks in greenhouse, fresh weight inhibition
How it was run: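 Growth inhibition is scored on fresh weight. Spray solutions were made in acetone with tween-80, diluted in water, plus 1.5 L/ha methyl oleate emulsible concentrate. Plants from greenhouse-grown weed and crop seeds were treated post-emergence at 2-3 leaves, 2 weeks after sowing.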

rice (japonica rice) = assay: Transplanted rice safety evaluation; settings: transplanted 3-leaf japonica rice, 1000 g a.i./ha, 21 days after treatment
Description: In addition, the rice field soil that loaded into the 1/1,000,000 ha pot was leveled to keep water storage at 3-4 cm depth. The 3-leaf stage rice (japonica rice) was transplanted at 3 cm of transplanting depth the next day. The compound of the present invention was treated by the same way after 5 days of transplantation.
as §1

[3] = 200 g a.i./ha, 3 weeks, weed resistant to cyhalofop-butyl
[4] = 200 g a.i./ha, 3 weeks, weed resistant to ALS inhibitor and ACCe herbicides

Row | SMILES | Monochoria Vaginalis, activity level 0-5 (Monochoria vaginalis; 1000 g a.i./ha) | Digitaria sanguinalis, activity level (growth inhibition rate) (Digitaria sanguinalis; [3]) | Activity level (growth inhibition rate), Digitaria sanguinalis (Digitaria sanguinalis) | Semen Euphorbiae Lathyridis, activity level (growth inhibition rate) [1] | rice, activity level (growth inhibition rate) (rice) | Echinochloa crusgalli, activity level (growth inhibition rate) (Echinochloa crusgalli; [4]) | Activity level (growth inhibition rate), Echinochloa crusgalli (Echinochloa crusgalli) | Activity level (growth inhibition rate), Abutilon theophrasti Medic. [2] | Activity level (growth inhibition rate), Galium aparine [2] | Activity level (growth inhibition rate), Monochoria Vaginalis [2] | rice, safety level 0-5 (rice (japonica rice)) | inhibition at 200 g/ha (Digitaria sanguinalis; Digitaria sanguinalis, 504 h, 200 g a.i./ha, 3 weeks, weed resistant to cyhalofop-butyl, read-out: Digitaria sanguinalis, activity level (growth inhibition rate)) | inhibition at 200 g/ha ([1]; 504 h, read-out: Semen Euphorbiae Lathyridis, activity level (growth inhibition rate)) | inhibition at 200 g/ha (Echinochloa crusgalli; Echinochloa crus-galli, 504 h, 200 g a.i./ha, 3 weeks, weed resistant to ALS inhibitor and ACCe herbicides, read-out: Echinochloa crusgalli, activity level (growth inhibition rate)) | Monochoria Vaginalis, activity level 0-5 (Monochoria vaginalis; 50 g a.i./ha)
1 | CSC(=O)[C@@H](C)Oc1nc(F)c(Cl)c(N)c1Cl [Compound 2-70] | 5 (Level 5: the growth inhibition rate is greater than 85%) | 5 (Level 5: the growth inhibition rate is greater than 85%) | 5 (Level 5: the growth inhibition rate is greater than 85%) | 5 (Level 5: the growth inhibition rate is greater than 85%) | 0 (Level 0: the growth inhibition rate is less than 5%) | 5 (Level 5: the growth inhibition rate is greater than 85%) | 5 (Level 5: the growth inhibition rate is greater than 85%) | 5 (Level 5: the growth inhibition rate is greater than 85%) | 5 (Level 5: the growth inhibition rate is greater than 85%) | 5 (Level 5: the growth inhibition rate is greater than 85%) | 0 (Level 0: the growth inhibition rate is less than 5%) | – | – | – | –
2 | CCOC(=O)COC(=O)C(C)Oc1nc(F)c(Cl)c(N)c1Cl (stereo not drawn) [Compound 2-294] | 5 (Level 5: the growth inhibition rate is greater than 85%) | 5 (Level 5: the growth inhibition rate is greater than 85%) | 5 (Level 5: the growth inhibition rate is greater than 85%) | 5 (Level 5: the growth inhibition rate is greater than 85%) | 0 (Level 0: the growth inhibition rate is less than 5%) | 5 (Level 5: the growth inhibition rate is greater than 85%) | 5 (Level 5: the growth inhibition rate is greater than 85%) | 5 (Level 5: the growth inhibition rate is greater than 85%) | 5 (Level 5: the growth inhibition rate is greater than 85%) | 5 (Level 5: the growth inhibition rate is greater than 85%) | 0 (Level 0: the growth inhibition rate is less than 5%) | – | – | – | –
3 | CC(Oc1nc(F)c(Cl)c(N)c1Cl)C(=O)OCc1ccccc1 (stereo not drawn) [Compound 2-300] | 5 (Level 5: the growth inhibition rate is greater than 85%) | 5 (Level 5: the growth inhibition rate is greater than 85%) | 5 (Level 5: the growth inhibition rate is greater than 85%) | 5 (Level 5: the growth inhibition rate is greater than 85%) | 0 (Level 0: the growth inhibition rate is less than 5%) | 5 (Level 5: the growth inhibition rate is greater than 85%) | 5 (Level 5: the growth inhibition rate is greater than 85%) | 5 (Level 5: the growth inhibition rate is greater than 85%) | 5 (Level 5: the growth inhibition rate is greater than 85%) | 5 (Level 5: the growth inhibition rate is greater than 85%) | 0 (Level 0: the growth inhibition rate is less than 5%) | – | – | – | –
4 | COC(=O)[C@@H](C)Oc1nc(F)c(Cl)c(N)c1Cl [Compound 2-69] | 5 (Level 5: the growth inhibition rate is greater than 85%) | – | 5 (Level 5: the growth inhibition rate is greater than 85%) | – | 0 (Level 0: the growth inhibition rate is less than 5%) | – | 5 (Level 5: the growth inhibition rate is greater than 85%) | 5 (Level 5: the growth inhibition rate is greater than 85%) | 5 (Level 5: the growth inhibition rate is greater than 85%) | 5 (Level 5: the growth inhibition rate is greater than 85%) | 0 (Level 0: the growth inhibition rate is less than 5%) | > 85% | > 85% | > 85% | –
5 | COc1cnc(OC)n2nc(NS(=O)(=O)c3c(OCC(F)F)cccc3C(F)(F)F)nc12 [penoxsulam, reference compound] | – | – | – | – | – | – | – | – | – | – | – | – | – | – | 1 (Level 1: the growth inhibition rate is equal to or greater than 5% and less than 20%)
6 | CCCCC(C)OC(=O)[C@@H](C)Oc1nc(F)c(Cl)c(N)c1Cl (stereo partly drawn) [Compound 2-113] | – | 5 (Level 5: the growth inhibition rate is greater than 85%) | 5 (Level 5: the growth inhibition rate is greater than 85%) | 5 (Level 5: the growth inhibition rate is greater than 85%) | 0 (Level 0: the growth inhibition rate is less than 5%) | 5 (Level 5: the growth inhibition rate is greater than 85%) | 5 (Level 5: the growth inhibition rate is greater than 85%) | 5 (Level 5: the growth inhibition rate is greater than 85%) | 5 (Level 5: the growth inhibition rate is greater than 85%) | 5 (Level 5: the growth inhibition rate is greater than 85%) | – | – | – | – | –
7 | CCCCCCCOC(=O)[C@@H](C)Oc1nc(F)c(Cl)c(N)c1Cl [Compound 2-121] | – | 5 (Level 5: the growth inhibition rate is greater than 85%) | 5 (Level 5: the growth inhibition rate is greater than 85%) | 5 (Level 5: the growth inhibition rate is greater than 85%) | 0 (Level 0: the growth inhibition rate is less than 5%) | 5 (Level 5: the growth inhibition rate is greater than 85%) | 5 (Level 5: the growth inhibition rate is greater than 85%) | 5 (Level 5: the growth inhibition rate is greater than 85%) | 5 (Level 5: the growth inhibition rate is greater than 85%) | 5 (Level 5: the growth inhibition rate is greater than 85%) | – | – | – | – | –
8 | CCCCCCCCCCCCOC(=O)[C@@H](C)Oc1nc(F)c(Cl)c(N)c1Cl [Compound 2-235] | – | 5 (Level 5: the growth inhibition rate is greater than 85%) | 5 (Level 5: the growth inhibition rate is greater than 85%) | 5 (Level 5: the growth inhibition rate is greater than 85%) | 0 (Level 0: the growth inhibition rate is less than 5%) | 5 (Level 5: the growth inhibition rate is greater than 85%) | 5 (Level 5: the growth inhibition rate is greater than 85%) | 5 (Level 5: the growth inhibition rate is greater than 85%) | 5 (Level 5: the growth inhibition rate is greater than 85%) | 5 (Level 5: the growth inhibition rate is greater than 85%) | – | – | – | – | –
